Measured values: publication PMC8364686, “Safety, tolerability, pharmacokinetics and pharmacodynamics of single oral doses of BI 187004, an inhibitor of 11beta-hydroxysteroid dehydrogenase-1, in healthy male volunteers with overweight or obesity” (Clinical Diabetes and Endocrinology, 2021)

Assay: Plasma pharmacokinetics of BI 187004 after single oral doses (LC–MS/MS)
Settings: male, human, plasma, po; for concentration at 6 h: planned time 6 h; for concentration at 8 h: planned time 8 h; for concentration at 10 h: planned time 10 h; for concentration at 12 h: planned time 12 h; for concentration at 36 h: planned time 36 h; for concentration at 48 h: planned time 48 h; for concentration at 72 h: planned time 72 h; for concentration at 96 h: planned time 96 h; for concentration at 0.5 h: planned time 0.5 h; for concentration at 1 h: planned time 1 h; for concentration at 1.5 h: planned time 1.5 h; for concentration at 2 h: planned time 2 h; for concentration at 2.5 h: planned time 2.5 h; for concentration at 3 h: planned time 3 h; for concentration at 4 h: planned time 4 h; for concentration at 5 h: planned time 5 h
[1] = 20 mg, BI 187004 plasma concentrations, 20 mg single oral, gMean
[2] = 20 mg, BI 187004 plasma concentrations, 20 mg single oral, Max
[3] = 20 mg, BI 187004 plasma concentrations, 20 mg single oral, Mean
[4] = 20 mg, BI 187004 plasma concentrations, 20 mg single oral, Median
[5] = 20 mg, BI 187004 plasma concentrations, 20 mg single oral, Min
[6] = 40 mg, BI 187004 plasma concentrations, 40 mg single oral, Max
[7] = 40 mg, BI 187004 plasma concentrations, 40 mg single oral, Mean
[8] = 40 mg, BI 187004 plasma concentrations, 40 mg single oral, Median
[9] = 40 mg, BI 187004 plasma concentrations, 40 mg single oral, Min
[10] = 40 mg, BI 187004 plasma concentrations, 40 mg single oral, gMean
[11] = 40 mg, BI 187004 plasma concentrations, 40 mg single oral, individual subjects

Procedure: This was a randomized, double-blind, placebo-controlled, single rising dose study conducted at a single center in Germany. […] Follow-up on an ambulatory basis was performed between 11 and 15 days after study drug administration. […] At the time of use the oral solution for dosing was prepared using the PFOS and a co-supplied aqueous solvent containing HP-beta-cyclodextrin 100 mg/mL. The lowest dose level solutions were prepared by further dilution of the lower concentration solution with additional solvent.
For each accepted run, the acceptance criteria for the calibration standards and quality controls were met.

N#Cc1ccc2c(c1)[C@H]1CCCN(C(=O)c3ccc4[nH]cnc4c3)[C@H]1C2 [BI 187004]
concentration at 6 h [1]: 547 nM
concentration at 8 h [2]: 645 nM
concentration at 8 h [3]: 464 nM
concentration at 8 h [4]: 398 nM
concentration at 8 h [5]: 354 nM
concentration at 8 h [1]: 449 nM
concentration at 8 h (20 mg, BI 187004 plasma concentrations, 20 mg single oral, individual subjects): 645 nM
concentration at 10 h [2]: 529 nM
concentration at 10 h [3]: 398 nM
concentration at 10 h [4]: 398 nM
concentration at 10 h [5]: 253 nM
concentration at 10 h [1]: 382 nM
concentration at 12 h [2]: 457 nM
concentration at 12 h [3]: 331 nM
concentration at 12 h [4]: 311 nM
concentration at 12 h [5]: 221 nM
concentration at 12 h [1]: 316 nM
concentration at 24 h (20 mg, BI 187004 plasma concentrations, 20 mg single oral, planned time 24 h, Max): 353 nM
concentration at 24 h (20 mg, BI 187004 plasma concentrations, 20 mg single oral, planned time 24 h, Mean): 187 nM
concentration at 24 h (20 mg, BI 187004 plasma concentrations, 20 mg single oral, planned time 24 h, Median): 155 nM
concentration at 24 h (20 mg, BI 187004 plasma concentrations, 20 mg single oral, planned time 24 h, Min): 85.8 nM
concentration at 24 h (20 mg, BI 187004 plasma concentrations, 20 mg single oral, planned time 24 h, gMean): 161 nM
concentration at 36 h [2]: 145 nM
concentration at 36 h [3]: 67.3 nM
concentration at 36 h [4]: 51.1 nM
concentration at 36 h [5]: 27.8 nM
concentration at 36 h [1]: 55.4 nM
concentration at 48 h [2]: 104 nM
concentration at 48 h [3]: 45.6 nM
concentration at 48 h [4]: 34.4 nM
concentration at 48 h [5]: 15.8 nM
concentration at 48 h [1]: 35.9 nM
concentration at 72 h [2]: 43.9 nM
concentration at 72 h [3]: 20.5 nM
concentration at 72 h [4]: 16.4 nM
concentration at 72 h [5]: 6.98 nM
concentration at 72 h [1]: 16.5 nM
concentration at 96 h [2]: 18.2 nM
concentration at 96 h [3]: 10.4 nM
concentration at 96 h [4]: 9.48 nM
concentration at 96 h [5]: 5.78 nM
concentration at 96 h [1]: 9.42 nM
concentration at 24 h (20 mg, C24 gMean (%gCV), 20 mg single oral dose): 161 nM
AUC(0-inf) (40 mg): 25.9 µM·h
AUC(0-t) (40 mg): 19.9 µM·h
Cmax (40 mg): 2210 nM
Tmax (40 mg): 1 h
Vd/F (40 mg): 123 L
half-life (40 mg): 18.9 h
concentration at 0.5 h [6]: 2530 nM
concentration at 0.5 h [7]: 1760 nM
concentration at 0.5 h [8]: 1980 nM
concentration at 0.5 h [9]: 487 nM
concentration at 0.5 h [10]: 1520 nM
concentration at 1 h [6]: 2820 nM
concentration at 1 h [7]: 2170 nM
concentration at 1 h [8]: 2410 nM
concentration at 1 h [9]: 974 nM
concentration at 1 h [10]: 2050 nM
concentration at 1.5 h [6]: 2610 nM
concentration at 1.5 h [7]: 1950 nM
concentration at 1.5 h [8]: 2160 nM
concentration at 1.5 h [9]: 1020 nM
concentration at 1.5 h [10]: 1870 nM
concentration at 2 h [6]: 2410 nM
concentration at 2 h [7]: 1760 nM
concentration at 2 h [8]: 1860 nM
concentration at 2 h [9]: 1040 nM
concentration at 2 h [10]: 1700 nM
concentration at 2.5 h [6]: 2180 nM
concentration at 2.5 h [7]: 1750 nM
concentration at 2.5 h [8]: 1870 nM
concentration at 2.5 h [9]: 1160 nM
concentration at 2.5 h [10]: 1710 nM
concentration at 2.5 h [11]: 2180 nM
concentration at 3 h [6]: 1810 nM
concentration at 3 h [7]: 1530 nM
concentration at 3 h [8]: 1560 nM
concentration at 3 h [9]: 1130 nM
concentration at 3 h [10]: 1510 nM
concentration at 3 h [11]: 1680 nM
concentration at 4 h [6]: 1700 nM
concentration at 4 h [7]: 1460 nM
concentration at 4 h [8]: 1530 nM
concentration at 4 h [9]: 1020 nM
concentration at 4 h [10]: 1440 nM
concentration at 4 h [11]: 1640 nM
concentration at 5 h [6]: 1610 nM
concentration at 5 h [7]: 1320 nM
concentration at 5 h [8]: 1350 nM
concentration at 5 h [9]: 888 nM
concentration at 5 h [10]: 1290 nM
concentration at 5 h [11]: 1440 nM
concentration at 6 h [6]: 1400 nM
concentration at 6 h [7]: 1120 nM
concentration at 6 h [8]: 1130 nM
concentration at 6 h [9]: 736 nM
concentration at 6 h [10]: 1090 nM
concentration at 6 h [11]: 1230 nM
concentration at 8 h [6]: 1190 nM
concentration at 8 h [7]: 951 nM
concentration at 8 h [8]: 987 nM
concentration at 8 h [9]: 606 nM
concentration at 8 h [10]: 929 nM
concentration at 8 h [11]: 1000 nM
